≈ marks a conversion by molar mass, not a printed value. Where two headings read alike, the source gives them in different places.
How the values were obtained:
Assay in all cases: EUCAST micro broth dilution in vitro susceptibility testing
Format in all cases: cell-based
[1] = system: Aspergillus fumigatus TR46/Y121F/T289A (azole resistant)
Description: (§1) The antifungal activity of a composition comprising Poly-(hexamethylene-guanidium chloride) and N,N-didecyl-N-methyl-poly(oxyethyl) ammonium propionate in a ratio of about 1:1 with respect to the molar amount was tested on wild type Aspergillus fumigatus (ATCC 204305) and azole resistant strains (TR 34/L98H and TR46/Y121F/T289A) as well as one clinical sample of Fusarium proliferatum and one clinical sample of Scedosporium Apiospermum was evaluated by means of EUCAST micro broth dilution1. This test method is currently recognized as the gold standard for in vitro susceptibility testing of filamenteus fungi. The test drug was diluted 1:30 in RPMI 1640 in order to obtain a max test concentration of 100 PPM. The test was performed three times for each test strain. The test drug was tested in the concentration range from 1-100 ppm.

[2] = system: Aspergillus fumigatus ATCC 204305 (wild type)
Description: as §1

[3] = system: Scedosporium Apiospermum (clinical sample)
Description: as §1

[4] = system: Fusarium Proliferatum (clinical sample)
Description: as §1

[5] = system: Aspergillus fumigatus TR34/L98H (azole resistant)
Description: as §1

[6] = Aspergillus fumigatus TR46/Y121F/T289A
[7] = Aspergillus fumigatus TR34/L98H

SMILES | MIC ([1]; Aspergillus fumigatus) [µg/mL] | MIC ([2]; ATCC204305, read-out: MIC) [µg/mL] | MIC ([3]; read-out: MIC) [µg/mL] | MIC ([4]; read-out: MIC) [µg/mL] | MIC ([5]; Aspergillus fumigatus) [µg/mL] | MIC [1, 6] [µg/mL] | MIC [2] [µg/mL] | MIC [3] [µg/mL] | MIC [4] [µg/mL] | MIC [5, 7] [µg/mL]
C[C@@H](c1ncncc1F)[C@](O)(Cn1cncn1)c1ccc(F)cc1F [Voriconazol] | > 16 | 0.5 (≈ 1.43 µM) | 0.25 (≈ 0.716 µM) | 4 (≈ 11.5 µM) | 4 (≈ 11.5 µM) |  |  |  |  | 
C[C@@H]1[C@H](O)[C@@H](C)/C=C/C=C/C=C/C=C/C=C/C=C/C=C/[C@H](O[C@@H]2O[C@H](C)[C@@H](O)[C@H](N)[C@@H]2O)C[C@@H]2O[C@](O)(C[C@@H](O)C[C@@H](O)[C@H](O)CC[C@@H](O)C[C@@H](O)CC(=O)O[C@H]1C)C[C@H](O)[C@H]2C(=O)O [Amphotericin B] |  |  |  |  |  | 0.25 (≈ 0.271 µM) | 0.25 (≈ 0.271 µM) | 4 (≈ 4.33 µM) | 1 (≈ 1.08 µM) | 0.25 (≈ 0.271 µM)
CCC(C)n1ncn(-c2ccc(N3CCN(c4ccc(OCC5COC(Cn6cncn6)(c6ccc(Cl)cc6Cl)O5)cc4)CC3)cc2)c1=O (stereo not shown) [Itraconazol] | 1 (≈ 1.42 µM) |  | 0.25 (≈ 0.354 µM) | > 8 | > 8 |  | 0.125 (≈ 0.177 µM) |  |  | 
CN(C/C=C/C#CC(C)(C)C)Cc1cccc2ccccc12 [Terbinafin] |  |  |  |  |  | 2 (≈ 6.86 µM) | 2 (≈ 6.86 µM) | >16 | 1 (≈ 3.43 µM) | 4 (≈ 13.7 µM)
C[C@@H]1C/C=C/C=C/C=C/C=C/[C@H](O[C@@H]2O[C@H](C)[C@@H](O)[C@H](N)[C@@H]2O)C[C@@H]2O[C@](O)(C[C@@H](O)C[C@H]3O[C@@H]3/C=C/C(=O)O1)C[C@H](O)[C@H]2C(=O)O [Natamycin] | 2 (≈ 3 µM) | 4 (≈ 6.01 µM) | 2 (≈ 3 µM) | 4 (≈ 6.01 µM) | 4 (≈ 6.01 µM) |  |  |  |  | 

From patent publication US12427166B2, “Antifungal agent” (priority 2015, dated 2025)
